The subject of assay [1] is Hep3B cell. As to the kind of experiment: Toxicity test of drugs, Hep3B cell cultured in microtiter plate (2D monolayer in 96-wells). The format is cell-based. Particulars: read-out: IC50 (concentration of drug when 50% of cells shows the growth inhibition), Microtiter Plate (2D Hep3B cell monolayer in 96-wells), drug cultured for a day. An excerpt:
The values shown in the above Table were obtained based on the results of culturing the drug for a day, dying it immediately after the culturing, and scanning it.

Assay [2] deals with Hep3B cell. As to the kind of experiment: Toxicity test of drugs, Hep3B cell cultured in microarray cell chip (3D alginate culture on the chip). The class given is cell-based. Particulars: read-out: IC50 (concentration of drug when 50% of cells shows the growth inhibition), Cell chip according to Invention (3D Hep3B cell culture on the chip); 3D Hep3B cell culture in alginate on the chip; drug cultured for a day; calcein AM / ethidium homodimer-1 staining. How it is done:
The mixture of the alginate-Hep3B cell line primarily combined the upper substrate 100 formed on the spacer with the lower substrate 200 having 800 nl of culture medium in the well 210 to gelate the alginate, thereby removing the extra barium chloride. The upper substrate 100 is separated after removing the extra barium chloride and again combines with the lower substrate 200 having 800 nl of new culture medium in the well 210, thereby culturing the Hep3B cell.
After the culture ends, the Hep3B cell existing on the upper substrate 100 was dyed with the fluorescent material (calcein AM and ethidium homodimer-1).

Here are results for five molecules from patent publication US20140011711A1, “MICROARRAY CELL CHIP” (Solidus Biosciences, Inc., priority 2010, published 2014).

For the molecule `CCN(CC)CCCC(C)Nc1ccnc2cc(Cl)ccc12` (stereo not drawn) [Chliroquine, Chloroquine], the IC50 in assay [1] is 50 µM.

As for `O=C(O)Cc1ccccc1Nc1c(Cl)cccc1Cl` [Diclofenac], the IC50 in assay [2] is 375 µM; in assay [1] it was 230 µM.

With `CO[C@@]12[C@H](COC(N)=O)C3=C(C(=O)C(C)=C(N)C3=O)N1C[C@@H]1N[C@@H]12` [Mitomycin C], the values for the IC50 in assay [2] and in assay [1] were 124 µM and 40 µM, respectively.

For the molecule `CCN(CC)C(=O)/C(C#N)=C/c1cc(O)c(O)c([N+](=O)[O-])c1` [Entacapone], the values for the IC50 in assay [2] and in assay [1] were 381 µM and 850 µM, respectively.

For the molecule `Cc1ccc(C(=O)c2cc(O)c(O)c([N+](=O)[O-])c2)cc1` [Tolcapone], the IC50 in assay [2] was 171 µM; in assay [1], 50 µM.
